“And” between values parts separate entries of the source, which are not always exact repeats. Equal entries are not always repeated. Where two headings read alike, the source gives them in different places.
Legend:
[1] = system: SU-DHL4, SU-DHL6, SU-DHL8, SU-DHL 10; experiment: Lymphoma cell line sensitivity to agents; assay type: cell-based; conditions: four lymphoma cell lines compared
Protocol: Only cells that are dependent on BCL-2 for survival are predicted to respond to BCL-2 antagonists like ABT-737. […] To test this, cells were treated with vincristine.

[2] = system: 2B4 cells; experiment: 2B4 cell viability with dexamethasone by Annexin V; assay type: cell-based, murine; conditions: 24 hours
Source text: (§1) Cells were stained with fluorescent conjugates of Annexin-V (BioVision) and propidium iodide (PI) and analyzed on a FACSCalibur machine (Becton-Dickinson).

[3] = system: CLL mitochondria; experiment: Cytochrome c release from CLL mitochondria; assay type: biochemical, human; conditions: peptides or compounds 100 μM
Protocol: Alternatively, mitochondria were purified from freshly isolated CLL cells and cell lines by mechanical disruption followed by differential centrifugation, as previously described (Letai et al., 2002). Mitochondrial suspensions were made at 0.5 mg protein/ml, except for the case of ABT-737 and negative control enantiomer treatments, where 0.1 mg/ml was used. Release of cytochrome c was determined by a comparison of cytochrome c in the pellet and supernatant quantitated by ELISA (R&D systems).
CLL mitochondria were incubated with BH3 peptides as well as ABT-737 and negative control enantiomer (FIG. 14). […] This pattern is diagnostic of mitochondrial BCL-2 dependence. […] Since the BH3 peptides in the sensitizer panel lack the ability to directly activate BAX and BAK, these experiments also implicated the presence of an activator molecule constitutively sequestered by BCL-2 in CLL.

[4] = target: T1, BCL-2:BIM complex (Homo sapiens, UniProt P10415); experiment: BCL-2 immunoprecipitation from treated primary CLL cells; assay type: cell-based; conditions: 100 nM, 24 hours
T1 construct: A BCL-2 antibody was used to immunoprecipitate BCL-2 from CLL lysates from four independent patient samples; endogenous in cells; host or cells: freshly isolated primary human CLL cells

[5] = system: H146 and H1963; conditions: in vitro and murine xenograft; cited from earlier work
[6] = target: T1, BCL-2:BIM complex; experiment: Displacement of BIM from immunoprecipitated BCL-2, detergent-free; assay type: binding; conditions: 1 μM, detergent-free conditions
[7] = target: T2, BCL-w (Homo sapiens, UniProt Q92843); conditions: cited from earlier work
T2 sequence (Q92843 1-193): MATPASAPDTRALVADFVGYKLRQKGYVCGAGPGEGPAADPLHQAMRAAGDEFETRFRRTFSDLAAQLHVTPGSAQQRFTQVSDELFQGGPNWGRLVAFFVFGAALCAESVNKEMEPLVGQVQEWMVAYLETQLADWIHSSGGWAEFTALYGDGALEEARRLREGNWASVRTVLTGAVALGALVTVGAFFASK

[8] = system: FL5.12 cells; experiment: FL5.12 cell survival by Annexin V; assay type: cell-based, murine
Protocol: as §1
FL5.12 cells were cultured as described previously in Iscove's modified Dulbecco's medium, 10% fetal bovine serum, 1000 ug/ml G418 with or without IL-3 provided by 10% WEHI-3B supplement (supernatant of IL-3 secreting WEHI-3B cells). FL5.12 cells were stably transfected with a vector containing a neomycin resistance construct and either human BCL-2 cDNA (FL5.12-BCL-2) or no insert (wt). 2B4 cells were cultured in RPMI 1640 supplemented with 10% fetal bovine serum, 100 U/ml penicillin, 100 ug/ml streptomycin, 10 uM non-essential amino acids and 8 ul/L betamercaptoethanol. Stably transfected 2B4 cells were isolated after transfection with pLZR-GFP retroviral vector or vector with Flag-Mc1-1 (kind gift from Joe Opferman).
In order to test whether mitochondrial dependence on individual antiapoptotic protein function can be correlated with cellular behavior, cellular models of defined antiapoptotic dependence were investigated. First, it was determined if cellular requirement for BCL-2 for cellular survival correlates with the BCL-2 signature of mitochondrial sensitivity to sensitizer BH3 domains found in FIG. 1B. The pro-lymphocytic murine FL5.12 cell line requires IL-3 to maintain survival. […]

[9] = system: CLL cells; experiment: Annexin-V death assay of freshly isolated primary CLL cells; assay type: cell-based, human; conditions: 48 hours
Protocol: as §1
(§2) 15 ml of blood in heparin treated tubes was obtained from each anonymous CLL patient and processed without freezing. Equal volume of media (RPMI medium, 10% […], supplemented with […] and 10 mg/ml transferrin) was mixed with each sample and CLL cells isolated by centrifugation through Ficoll-PAQUE Plus (Amersham). Cells were washed twice in media and cultured at a density of 2.0×10^6 cells/ml for up to 48 hours. Samples for FIG. 11A were obtained from 24 consecutive patients identified with WBC >50,000/μl. All guidelines and regulations were followed in accordance with IRB protocols #99-224 (Dana-Farber Cancer Institute). Normal PBMC's were obtained from tubing discarded following platelet donation by anonymous normal donors and processed as above, except cultured without insulin and transferrin.
Experimental replicates were performed using lysates or mitochondria from different CLL samples. In main body, where a P value is given, it was obtained by using a two-tailed Students t-test, and P<0.05 was considered statistically significant. GraphPad Prism software was used to determine EC50 values by non-linear dose-response curve fitting and to perform Mann-Whitney nonparametric testing in Table 5.
Freshly isolated primary CLL cells were incubated with ABT-737 or negative control enantiomer. After 48 hours, death was assessed using Annexin-V staining.

[10] = system: peripheral blood mononuclear cells (PBMC); experiment: Annexin-V death assay of normal PBMC; assay type: cell-based; conditions: Homo sapiens, 24 hours, read-out: EC50, PBMC from normal donors
Protocol: as §1, §2
CLL cells have shown sensitivity to ABT-737, so they were selected as a possible initial cancer model of BCL-2 dependence (Oltersdorf et al., 2005). Freshly isolated primary CLL cells were incubated with ABT-737 or negative control enantiomer. After 48 hours, death was assessed using Annexin-V staining. […] Directly targeting the apoptotic machinery might be expected to induce apoptosis rapidly.

[11] = target: BCL-2 (Homo sapiens, UniProt P10415); conditions: cited from earlier work
Sequence of BCL-2 (P10415 whole entry, species assumed): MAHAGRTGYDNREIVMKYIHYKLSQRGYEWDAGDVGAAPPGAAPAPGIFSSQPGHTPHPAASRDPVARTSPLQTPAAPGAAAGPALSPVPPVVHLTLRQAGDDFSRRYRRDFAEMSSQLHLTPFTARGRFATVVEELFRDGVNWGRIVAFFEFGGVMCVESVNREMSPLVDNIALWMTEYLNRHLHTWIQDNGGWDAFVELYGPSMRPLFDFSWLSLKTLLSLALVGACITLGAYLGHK

T1 sequence (P10415 whole entry, one chain of several): as the sequence (P10415 whole entry, species assumed) above

CN(C)CC[C@H](CSc1ccccc1)Nc1ccc(S(=O)(=O)NC(=O)c2ccc(N3CCN(Cc4ccccc4-c4ccc(Cl)cc4)CC3)cc2)cc1[N+](=O)[O-] [ABT-737]
cell sensitivity to the agent [1]: BH3 profiling accurately predicted response to ABT-737 | effect on cell survival ([2]; BCL-2-protected dexamethasone-treated 2B4 cells): very sensitive to ABT-737 | effect on cell survival ([2]; MCL-1-protected dexamethasone-treated 2B4 cells): has no effect | cytochrome c release [3]: also induced cytochrome c release | amount of BIM bound to BCL-2 [4]: causes a dramatic reduction in the amount of BIM bound to BCL-2 | sensitivity of H146 and H1963 to treatment [5]: sensitive to treatment with ABT-737 in vitro and in an in vivo murine xenograft model | displacement of BIM from BCL-2 into the supernatant [6]: displaces BIM from BCL-2 into the supernatant | affinity to BCL-w [7]: sub-nanomolar range | toxicity ([8]; IL-3 replete wt FL5.12 cells): non-toxic | cell death ([8]; IL-3 starved FL5.12-BCL-2 cells, 24 hours): induced cell death in the IL-3 starved | EC50 ([9]; CLL cells of one patient per row (V1-V24), read-out: EC50 ABT-737): 3.6 nM and 2.1 nM and 3.1 nM and 1.9 nM and 4.1 nM and 8.7 nM and 5.8 nM and 6 nM and 3.3 nM and 6.4 nM and 2.9 nM and 9.4 nM and 2.3 nM and 4.8 nM and 4 nM and 7.4 nM and 6.1 nM and 7 nM and 3.2 nM and 3.5 nM | EC50 ([9]; Homo sapiens, CLL cell, 48 h, twenty-four CLL samples, read-out: mean EC50, apoptosis of CLL cells): 4.5 nM | EC50 ([9]; Homo sapiens, CLL cell, 48 h, twenty-four CLL samples, read-out: range of EC50 over CLL samples): 1.9 to 9.4 nM | EC50 [10]: > 1000 nM | affinity to BCL-2 [11]: sub-nanomolar range
